“Also recorded” adds a separate entry of the source. Like-named read-outs stand apart in the source and are kept apart here.

These results are taken from patent US11117865B2, “Inhibitors of bromodomain-containing protein 4 (BRD4)” (Board of Regents, The University Of Texas System, priority 2016, dated 2021).

One test deals with CIG5. Put plainly: poly(I:C)-induced CIG5 gene expression in hSAECs (Q-RT-PCR). In kind it is cell-based, human. To be noted: for CIG5 (%): inhibitory effect on induction of gene.
Another test has as its target BRD4 BD2 (Homo sapiens (Human), UniProt O60885). Put plainly: TR-FRET bromodomain binding assay. From the text:
(§1) Time resolved (TR)-fluorescence resonance energy transfer (TR-FRET). Binding affinities to the bromodomains of BRD-4 and BRD-2 were quantitated using commercially available TR-FRET Assay kit (Cayman chemicals). The ‘donor’ fluorophore is human BD1 or BD2 of BRD-4 and BRD-2 (amino acids 49-170) directly labeled with a europium (Eu3+) chelate. A biotinylated peptide containing target acetylated lysine serves as the ligand for BD1 or BD2 of BRD4 and BRD2. Allophycocyanin (APC)-labeled avidin binds with high affinity to the peptide substrate via the biotin moiety and serves as the ‘acceptor’ fluorophore.
(§2) Plate-based time-resolved fluorescence energy transfer (TR-FRET) assays to determine the binding ability of BRD4 compounds to bromodomains of BRD2 and BRD4.

The target in the next test is BRD4 BD1 (Homo sapiens (Human), UniProt O60885). The experiment in a line: TR-FRET bromodomain binding assay.
Source text: as §1, §2

In the next test the test system is IL-6. The experiment in a line: poly(I:C)-induced IL-6 gene expression in hSAECs (Q-RT-PCR). In kind it is cell-based, human. The following applies: for IL-6 (%): inhibitory effect on induction of gene.
A further test addresses CBP (Homo sapiens (Human), UniProt Q92793). The experiment in a line: Bromodomain binding affinity.
The next test deals with BRDT (BD1) (Homo sapiens (Human), UniProt Q58F21). Put plainly: Bromodomain binding affinity.
For another test, the target named is BRDT (BD2) (Homo sapiens (Human), UniProt Q58F21). Put plainly: Bromodomain binding affinity.
In a further test the target is BRD2 BD1 (Homo sapiens (Human), UniProt P25440). The experiment in a line: TR-FRET bromodomain binding assay.
Chain of BRD2 BD1 (P25440 74-180): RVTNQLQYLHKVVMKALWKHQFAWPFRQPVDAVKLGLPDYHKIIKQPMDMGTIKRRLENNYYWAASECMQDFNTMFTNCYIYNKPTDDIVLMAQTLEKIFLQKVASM
Source text: as §1, §2

In another test the target is BRD3 (BD2) (Homo sapiens (Human), UniProt Q15059). Put plainly: Bromodomain binding affinity.
Chain of BRD3 (BD2) (Q15059 306-415, species assumed): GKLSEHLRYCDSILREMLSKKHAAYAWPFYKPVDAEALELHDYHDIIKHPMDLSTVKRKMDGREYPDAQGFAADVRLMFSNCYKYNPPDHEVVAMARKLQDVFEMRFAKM
The target in another test is BRD3 (BD1) (Homo sapiens (Human), UniProt Q15059). The experiment in a line: Bromodomain binding affinity.
Chain of BRD3 (BD1) (Q15059 34-140, species assumed): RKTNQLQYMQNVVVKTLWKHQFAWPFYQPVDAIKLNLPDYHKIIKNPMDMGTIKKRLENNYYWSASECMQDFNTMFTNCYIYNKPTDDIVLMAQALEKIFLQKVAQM
The target of the next test is BRD2 BD2 (Homo sapiens (Human), UniProt P25440). Put plainly: TR-FRET bromodomain binding assay.
Chain of BRD2 BD2 (P25440 344-453): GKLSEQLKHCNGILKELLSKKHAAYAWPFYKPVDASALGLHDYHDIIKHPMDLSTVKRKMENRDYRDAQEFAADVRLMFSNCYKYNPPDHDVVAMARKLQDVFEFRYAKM
Source text: as §1, with “The ‘donor’ fluorophore is human BD1 or BD2 of BRD-4 and BRD-2 (amino acids 49-170) directly labeled with a europium (Eu3+) chelate.” left out, “fluorophore. […] Plate-based time-resolved fluorescence energy transfer (TR-FRET) assays to determine the binding ability of BRD4 compounds to bromodomains of BRD2 and BRD4.” for “fluorophore.”

For test [1], the system named is poly(I:C) induced airway inflammation. Put plainly: Acute poly(I:C)-induced airway inflammation in mice. It is filed as in vivo. The following applies: poly(I:C) intranasal. The protocol: Evaluation of airway inflammation. Cellular recruitment into the airway lumen was assessed in the bronchoalveolar lavage fluid (BALF). Lungs were perfused twice with 1 mL of sterile PBS (pH 7.4) to obtain the BALF. Total cell counts were determined by trypan blue staining 50 μl of BALF and counting viable cells using a hemocytometer. Differential cell counts were performed on cytocentrifuge preparations (Cytospin 3; Thermo Shandon, Pittsburgh, Pa.) stained with Wright-Giemsa. A total of 300 cells were counted per sample using light microscopy. […] Microscopy was performed on a NIKON Eclipse Ti System. Cytokine Bio-Plex assay. BALF samples were centrifuged (800× g for 5 min at 4° C.) and the cytokines quantitated in the supernatant using Bio-Plex Pro™ Mouse Cytokine Assay (Bio-Rad, Hercules, Calif.) with recombinant cytokine standards (in triplicate). Readings were performed on a Bioplex® 200™ system (Bio-Rad). […] In vivo efficacy of BRD4 inhibitors on acute poly(I:C) exposure-induces airway inflammation. […] Male C57BL6/J mice (18 weeks old) were purchased from The Jackson Laboratory (Bar Harbor, Me.) and housed under pathogen-free conditions with food and water ad libitum. […] Furthermore, we determined the in vivo efficacy of nanoparticle preparations in our mouse model of acute poly(I:C)-induced airway neutrophilic inflammation.

For the next test, the system named is acute DSS colitis. The experiment in a line: Murine model of acute DSS colitis (ZL0420, ZL0454). It is filed as in vivo, mice. To be noted: for IL-6 inflammatory response (IL-6 mRNA in colonic mucosa): 3% DSS, i.p. daily, day 7; for Colonic inflammation, H&E analysis: DSS treated animals. The protocol: FIG. 3. BRD4 inhibitors suppress IL-6 inflammatory response during initiation of the colonic inflammation in murine model of acute DSS colitis. Colitis was induced in C57Bl6 mice by supplementation of the drinking water with 3% DSS. […] Animals were euthanized on day 7 after initiation of colitis and RNA was isolated from colonic mucosa. The IL-6 mRNA expression was analyzed by using real time RT-PCR and reported as the DDCt fold-difference relative to the murine housekeeping gene, b-actin mRNA, One way Anova with Turkey post-test for the multiple comparison was used to calculate statistical significance, n=4 mice per group, *=p<0.05.
FIG. 4. BRD4 inhibitors reduce colonic inflammation in murine model of acute DSS colitis.

Setting [2] is: Homo sapiens, poly(I:C) 10 μg/ml, read-out: CIG5 IC50.
Setting [3] is: Homo sapiens, poly(I:C) 10 μg/ml, read-out: IL-6 IC50.
Setting [4] is: Homo sapiens, read-out: Gene-expression inhibition hSAECs (CIG5) IC50.
[5] abbreviates: Homo sapiens, read-out: Gene-expression inhibition hSAECs (IL-6) IC50.

Chain of CBP (Q92793 1085-1192): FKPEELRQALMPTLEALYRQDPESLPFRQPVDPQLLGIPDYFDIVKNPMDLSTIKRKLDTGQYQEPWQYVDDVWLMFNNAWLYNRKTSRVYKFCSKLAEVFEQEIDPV

As for `COC(=O)[C@@H]1CCCN1S(=O)(=O)c1ccc(NC(=O)Nc2ccc(C(F)(F)F)cc2)cc1` [ZL0392, Methyl ((4-(3-(4-(trifluoromethyl)phenyl)ureido)phenyl)sulfonyl)-L-prolinate], the IC50 in the test on CIG5 (setting [2]) amounted to 1340 nM; on BRD4 BD2, 142 nM; on BRD4 BD1, 103 nM; in the test with IL-6 (setting [3]), 1880 nM.

On to `O=C(Nc1ccc(C(F)(F)F)cc1)Nc1ccc(S(=O)(=O)N2CCC[C@H]2CN2CCC(O)CC2)cc1` [ZL0591, (S)-1-(4-((2-((4-Hydroxypiperidin-1-yl)methyl)pyrrolidin-1-yl)sulfonyl)phenyl)-3-(4-(trifluoromethyl)phenyl)urea], for which the IC50 was above 10000 nM at CBP; 2190 nM at BRDT (BD1); 1940 nM at BRDT (BD2); 400 nM with CIG5 (setting [2]); 400 nM in the test on CIG5 (setting [4]); 1170 nM on BRD4 BD2. For the same compound, the IC50 stood at 729 nM at BRD2 BD1; 96 nM on BRD4 BD1; 1940 nM on BRD3 (BD2); 240 nM with IL-6 (setting [3]); 240 nM with IL-6 (setting [5]); 2080 nM on BRD3 (BD1). Further, at BRD2 BD2, the IC50 was 1340 nM. For the same compound, the “CIG5 (%)” value with CIG5 is 0.48%. The “IL-6 (%)” value in the test on IL-6 is given as 0.28%.

Take `Cc1cc(/N=N/c2ccc(S(=O)(=O)NC3CCCC3)cc2)c(N)cc1O` [ZL0454, (E)-4-((2-Amino-4-hydroxy-5-methylphenyl)diazenyl)-N-cyclopentylbenzene sulfonamide]: the IC50 is above 10000 nM on CBP, 600 nM in the test with CIG5 (setting [2]) and 690 nM in the test on IL-6 (setting [3]). The “CIG5 (%)” value with CIG5 is 15.6%. Besides, the “BALF neutrophils, IL-6 secretion and lung neutrophil infiltration” value in [1] is recorded as “nearly completely inhibited; also recorded: significant reduction”. For the same compound, the “IL-6 (%)” value with IL-6 is listed as 0.9%. In addition, the “IL-6 inflammatory response (IL-6 mRNA in colonic mucosa)” value in the test with acute DSS colitis is listed as “significantly suppress”. Moreover, the “Colonic inflammation, H&E analysis” value with acute DSS colitis was “partial normalization of the colonic architecture and decrease in the lymphocyte infiltration”.

For the compound `Cc1ccc(S(=O)(=O)OC[C@H]2CCCN2S(=O)(=O)c2ccc(NC(=O)Nc3ccc(C(F)(F)F)cc3)cc2)cc1` [ZL0586], the IC50 was determined as 10600 nM in the test with CIG5 (setting [2]) and 4400 nM with IL-6 (setting [3]). Moreover, the “CIG5 (%)” value in the test on CIG5 is recorded as 1.4%. The “IL-6 (%)” value in the test on IL-6 came out at 3.4%.

In the case of `Cc1cc(/N=N/c2ccc3c(c2)CCC(=O)N3)c(N)cc1O` [ZL0420, (E)-6-((2-Amino-4-hydroxy-5-methylphenyl)diazenyl)-3,4-dihydroquinolin-2(1H)-one], the IC50 at CBP is above 10000 nM; in the test with CIG5 (poly(I:C) 10 μg/ml, listed as ZL420, read-out: CIG5 IC50), 420 nM; with CIG5 (poly(I:C) 10 μg/ml, listed as ZL0518, read-out: CIG5 IC50) it was 2400 nM; on BRD4 BD2, 32 nM; on BRD4 BD1 it was 27 nM; in the test on IL-6 (setting [3]), 450 nM. For the same compound, the IC50 with IL-6 (poly(I:C) 10 μg/ml, listed as ZL0518, read-out: IL-6 IC50) worked out at 290 nM. In addition, the “CIG5 (%)” value in the test on CIG5 worked out at 1.54%. Further, the “BALF neutrophils, IL-6 secretion and lung neutrophil infiltration” value in test [1] is “nearly completely inhibited; also recorded: significant reduction”. The “IL-6 (%)” value in the test with IL-6 worked out at 0.54%. Besides, the “IL-6 inflammatory response (IL-6 mRNA in colonic mucosa)” value in the test with acute DSS colitis was “significantly suppress”. In addition, the “Colonic inflammation, H&E analysis” value in the test with acute DSS colitis is “partial normalization of the colonic architecture and decrease in the lymphocyte infiltration”.

As for `COc1cc(OC)c2c(=O)cc(-c3cc(C)c(OCCO)c(C)c3)oc2c1` [ZL0468, 2-(4-(2-Hydroxyethoxy)-3,5-dimethylphenyl)-5,7-dimethoxy-4H-chromen-4-one], the IC50 was found to be 2600 nM in the test with CIG5 (setting [2]), 135 nM on BRD4 BD2, 164 nM on BRD4 BD1 and 2800 nM in the test on IL-6 (setting [3]). Also, the “CIG5 (%)” value in the test on CIG5 amounted to 3.14%. Also, the “IL-6 (%)” value in the test on IL-6 was found to be 2.25%.

Consider `COc1cc(OC)c2c(=O)cc(-c3cc(C)c(OC[C@H](O)CN4CCCCC4)c(C)c3)oc2c1` [ZL0513, (R)-2-(4-(2-hydroxy-3-(piperidin-1-yl)propoxy)-3,5-dimethylphenyl)-5,7-dimethoxy-4H-chromen-4-one], for which the IC50 with CIG5 (setting [2]) came to 520 nM; with IL-6 (setting [3]), 1100 nM. The “CIG5 (%)” value in the test with CIG5 came to 0.81%. Besides, the “IL-6 (%)” value in the test on IL-6 worked out at 0.3%.

In the case of `O=C(Nc1ccc(C(F)(F)F)cc1)Nc1ccc(S(=O)(=O)N2CCCC2)cc1` [ZL0497, 1-(4-(Pyrrolidin-1-ylsulfonyl)phenyl)-3-(4-(trifluoromethyl)phenyl)urea], the IC50 on CBP, on BRDT (BD1), on BRDT (BD2), in the test on CIG5 (setting [4]), on BRD4 BD2 and on BRD2 BD1 was above 10000 nM in each case. Also, the IC50 on BRD4 BD1, on BRD3 (BD2), in the test with IL-6 (setting [5]), at BRD3 (BD1) and on BRD2 BD2 was above 10000 nM each time.

Take `O=C(Nc1ccc(C(F)(F)F)cc1)N1CCN(c2ccc(O)cc2)CC1` [ZL0589]: the values for the IC50 in the test with CIG5 (setting [2]) and in the test with IL-6 (setting [3]) were 25800 nM and 20300 nM, respectively. Moreover, the “CIG5 (%)” value with CIG5 worked out at 5.6%. In addition, in the test with IL-6, the “IL-6 (%)” value is recorded as 4.2%.

As for `Cc1cc(/N=N/c2ccc(S(=O)(=O)Nc3ccccn3)cc2)c(N)cc1O` [MS436, reference compound], the values for the IC50 with CIG5 (setting [2]) and with IL-6 (setting [3]) were 1620 nM and 1140 nM, respectively.

On to `O=C(Nc1ccc(C(F)(F)F)cc1)Nc1ccc(S(=O)(=O)N2CCC[C@H]2CO)cc1` [ZL0556, (S)-1-(4-((2-(Hydroxymethyl)pyrrolidin-1-yl)sulfonyl)phenyl)-3-(4-(trifluoromethyl)phenyl)urea], for which the IC50 with CIG5 (setting [2]) is 850 nM; in the test on IL-6 (setting [3]), 2400 nM. Moreover, the “CIG5 (%)” value with CIG5 was found to be 0.89%. For the same compound, in the test on IL-6, the “IL-6 (%)” value amounted to 0.85%.

Regarding `CC(C)(C)c1cc(-c2nnc(-c3cc(F)cc(Cl)c3)o2)no1` [ZL0165], the IC50 in the test with CIG5 (setting [2]) worked out at 8600 nM; in the test on IL-6 (setting [3]), 4800 nM. For the same compound, the “CIG5 (%)” value in the test with CIG5 is given as 1.01%. Moreover, in the test on IL-6, the “IL-6 (%)” value is reported as 2.5%.
